Source: patent US8802720B2, “Acylamino-substituted fused cyclopentanecarboxylic acid derivatives and their use as pharmaceuticals” (SANOFI, priority 2008, dated 2014)

Molecular target: human Edg-2 receptor (LPA1 receptor) (Homo sapiens, UniProt Q92633)
Experiment: Edg-2 receptor inhibition by FLIPR calcium fluorescence measurement (LPA-mediated calcium liberation)
Type: cell-based
Settings: CHO cells stably overexpressing human Edg-2 receptor; LPA 18:1 100 nM; fluo-4 fluorescence; triplicate; read-out: Inhibitory concentrations IC50 for inhibition of the Edg-2 receptor
In short: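 CHO cells stably overexpressing human Edg-2 were fluo-4 loaded and pre-incubated ~5 min with compound (≤0.3% DMSO) in HBSS/HEPES/probenecid, pH 7.5. Then LPA 18:1 at 100 nM final was added. Peak calcium fluorescence over ~3 min, baseline-corrected versus DMSO, gave % inhibition in triplicate and IC50.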

Sequence of human Edg-2 receptor (LPA1 receptor) (Q92633 whole entry): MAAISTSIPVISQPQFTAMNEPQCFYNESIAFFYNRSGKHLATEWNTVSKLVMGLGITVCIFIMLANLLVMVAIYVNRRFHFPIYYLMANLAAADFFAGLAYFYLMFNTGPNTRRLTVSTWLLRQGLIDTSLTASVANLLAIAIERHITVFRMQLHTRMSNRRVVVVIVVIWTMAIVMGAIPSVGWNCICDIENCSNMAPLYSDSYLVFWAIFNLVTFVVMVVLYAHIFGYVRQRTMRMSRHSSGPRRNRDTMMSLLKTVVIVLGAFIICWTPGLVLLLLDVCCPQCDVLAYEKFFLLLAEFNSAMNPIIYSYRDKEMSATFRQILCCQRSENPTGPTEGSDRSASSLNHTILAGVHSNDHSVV

Compound	IC50
Cc1ccc(C(=O)NC2(C(=O)O)Cc3ccccc3C2)cc1OCCc1ccccc1F [Example 177, 2-{3-[2-(2-Fluoro-phenyl)-ethoxy]-4-methyl-benzoylamino}-indane-2-carboxylic acid]	100 to 1000 nM
CCOc1ccc(C(=O)NC2(C(=O)O)Cc3ccccc3C2)cc1NCCc1cccc(C)c1 [Example 178, 2-[4-Ethoxy-3-(2-m-tolyl-ethylamino)-benzoylamino]-indane-2-carboxylic acid]	1000 to 30000 nM
Cc1cccc(CCNc2cc(C(=O)NC3(C(=O)O)Cc4ccccc4C3)ccc2O)c1 [Example 179, 2-[4-Hydroxy-3-(2-m-tolyl-ethylamino)-benzoylamino]-indane-2-carboxylic acid]	100 to 1000 nM
COc1ccc(C(=O)NC2(C(=O)O)Cc3ccccc3C2)cc1SCCc1cccc(C)c1 [Example 180, 2-[4-Methoxy-3-(2-m-tolyl-ethylsulfanyl)-benzoylamino]-indane-2-carboxylic acid]	< 100 nM
COc1ccc(C(=O)NC2(C(=O)O)Cc3ccccc3C2)cc1SCCc1cccc(Cl)c1 [Example 181, 2-{3-[2-(3-Chloro-phenyl)-ethylsulfanyl]-4-methoxy-benzoylamino}-indane-2-carboxylic acid]	< 100 nM
COc1ccc(C(=O)NC2(C(=O)O)Cc3ccccc3C2)cc1SCc1ccccc1 [Example 182, 2-(3-Benzylsulfanyl-4-methoxy-benzoylamino)-indane-2-carboxylic acid]	1000 to 30000 nM
COc1ccc(C(=O)NC2(C(=O)O)Cc3ccccc3C2)cc1S(=O)(=O)CCc1cccc(C)c1 [Example 183, 2-[4-Methoxy-3-(2-m-tolyl-ethanesulfonyl)-benzoylamino]-indane-2-carboxylic acid]	1000 to 30000 nM
COc1ccc(C(=O)NC2(C(=O)O)Cc3ccccc3C2)cc1S(=O)(=O)CCc1cccc(Cl)c1 [Example 184, 2-{3-[2-(3-Chloro-phenyl)-ethanesulfonyl]-4-methoxy-benzoylamino}-indane-2-carboxylic acid]	1000 to 30000 nM
Cc1cccc(CCOc2cc(C(=O)NC3(C(=O)O)Cc4ccccc4C3)ccc2C(F)(F)F)c1 [Example 185, 2-[3-(2-m-Tolyl-ethoxy)-4-trifluoromethyl-benzoylamino]-indane-2-carboxylic acid]	< 100 nM
O=C(NC1(C(=O)O)Cc2ccccc2C1)c1ccc(C(F)(F)F)c(OCCc2cccc(Cl)c2)c1 [Example 186, 2-{3-[2-(3-chloro-phenyl)-ethoxy]-4-trifluoromethyl-benzoylamino}-indane-2-carboxylic acid]	< 100 nM
O=C(NC1(C(=O)O)Cc2ccccc2C1)c1ccc(C(F)(F)F)c(OCCc2c(F)cccc2Cl)c1 [Example 187]	< 100 nM
O=C(NC1(C(=O)O)Cc2ccccc2C1)c1ccc(C(F)(F)F)c(OCCc2cc(F)ccc2F)c1 [Example 188]	< 100 nM
O=C(NC1(C(=O)O)Cc2ccccc2C1)c1ccc(C(F)(F)F)c(OCCc2cc(Cl)ccc2F)c1 [Example 189]	< 100 nM
Cc1nccnc1CCOc1cc(C(=O)NC2(C(=O)O)Cc3ccccc3C2)ccc1C(F)(F)F [Example 190]	1000 to 30000 nM
O=C(NC1(C(=O)O)Cc2ccccc2C1)c1ccc(C(F)(F)F)c(OCCc2cc(C(F)(F)F)ccc2F)c1 [Example 191]	< 100 nM
Cc1ccc(F)c(CCOc2cc(C(=O)NC3(C(=O)O)Cc4ccccc4C3)ccc2C(F)(F)F)c1 [Example 192]	< 100 nM
COc1ccc(C(=O)NC2(C(=O)O)Cc3ccccc3C2)cc1OCCc1cc(Cl)ccc1F [Example 193, 2-{3-[2-(5-Chloro-2-fluoro-phenyl)-ethoxy]-4-methoxy-benzoylamino}-indane-2-carboxylic acid]	< 100 nM
COc1ccc(C(=O)NC2(C(=O)O)Cc3ccccc3C2)cc1C#Cc1ccc(C(F)(F)F)cc1 [Example 194, 2-[4-Methoxy-3-(4-trifluoromethyl-phenylethynyl)-benzoylamino]-indane-2-carboxylic acid]	1000 to 30000 nM
COc1ccc(C(=O)NC2(C(=O)O)Cc3ccccc3C2)cc1C#Cc1ccc(C(C)(C)C)cc1 [Example 195, 2-[3-(4-tert-Butyl-phenylethynyl)-4-methoxy-benzoylamino]-indane-2-carboxylic acid]	100 to 1000 nM
COc1ccc(C(=O)NC2(C(=O)O)Cc3ccccc3C2)cc1-c1cccc(C(C)C)c1 [Example 196, 2-[(3′-Isopropyl-6-methoxy-biphenyl-3-carbonyl)-amino]-indane-2-carboxylic acid]	< 100 nM
COc1ccc(C(=O)NC2(C(=O)O)Cc3ccccc3C2)cc1-c1ccc(CC(C)C)cc1 [Example 197]	1000 to 30000 nM
COc1ccc(C(=O)NC2(C(=O)O)Cc3ccccc3C2)cc1-c1cccc(Cl)c1 [Example 198]	< 100 nM

Compound	IC50
COc1ccc(C(=O)NC2(C(=O)O)Cc3ccccc3C2)cc1-c1cccc(CC#N)c1 [Example 199, 2-[(3′-cyanomethyl-6-methoxy-biphenyl-3-carbonyl)-amino]-indane-2-carboxylic acid]	< 100 nM
COc1ccc(C(=O)NC2(C(=O)O)Cc3ccccc3C2)cc1-c1cccc(C(F)(F)F)c1 [Example 200]	< 100 nM
COc1ccc(C(=O)NC2(C(=O)O)Cc3ccccc3C2)cc1-c1ccc(C(C)(C)C)cc1 [Example 201]	1000 to 30000 nM
CCc1cccc(-c2cc(C(=O)NC3(C(=O)O)Cc4ccccc4C3)ccc2OC)c1 [Example 202]	< 100 nM
COc1ccc(C(=O)NC2(C(=O)O)Cc3ccccc3C2)cc1-c1cccc(NS(=O)(=O)N(C)C)c1 [Example 203]	< 100 nM
COc1ccc(C(=O)NC2(C(=O)O)Cc3ccccc3C2)cc1OCCc1cc(F)ccc1F [Example 204, 2-{3-[2-(2,5-Difluoro-phenyl)-ethoxy]-4-methoxy-benzoylamino}-indane-2-carboxylic acid]	< 100 nM
CCc1ccc(CCOc2cc(C(=O)NC3(C(=O)O)Cc4ccccc4C3)ccc2OC)nc1 [Example 205, 2-{3-[2-(5-Ethyl-pyridin-2-yl)-ethoxy]-4-methoxy-benzoylamino}-indane-2-carboxylic acid]	1000 to 30000 nM
COc1ccc(C(=O)NC2(C(=O)O)Cc3ccccc3C2)cc1OCCc1scnc1C [Example 206, 2-{4-Methoxy-3-[2-(4-methyl-thiazol-5-yl)-ethoxy]-benzoylamino}-indane-2-carboxylic acid]	1000 to 30000 nM
COc1ccc(C(=O)NC2(C(=O)O)Cc3nccnc3C2)cc1OCCc1cccc(C)c1 [Example 207, 6-[4-Methoxy-3-(2-m-tolyl-ethoxy)-benzoylamino]-6,7-dihydro-5H-cyclopentapyrazine-6-carboxylic acid]	1000 to 30000 nM
COc1ncc(C(=O)NC2(C(=O)O)Cc3ccccc3C2)cc1OCCc1cccc(C)c1 [Example 208, 2-{[6-Methoxy-5-(2-m-tolyl-ethoxy)-pyridine-3-carbonyl]-amino}-indane-2-carboxylic acid]	< 100 nM
COc1ccc(C(=O)NC2(C(=O)O)Cc3ccccc3C2C)cc1OCCc1cccc(C)c1 (stereo not shown) [Example 209, 2-[4-Methoxy-3-(2-m-tolyl-ethoxy)-benzoylamino]-1-methyl-indane-2-carboxylic acid]	< 100 nM
COc1ccc(C(=O)NC2(C(=O)O)Cc3ccccc3C2)cc1OCCc1cccc(C(C)(CO)CO)c1 [Example 210, 2-(3-{2-[3-(2-Hydroxy-1-hydroxymethyl-1-methyl-ethyl)-phenyl]-ethoxy}-4-methoxy-benzoylamino)-indane-2-carboxylic acid]	100 to 1000 nM
COc1ccc(C(=O)NC2(C(=O)O)CC3CCCCC3C2)cc1OCCc1cccc(C)c1 (stereo not shown) [Example 211, 2-[4-Methoxy-3-(2-m-tolyl-ethoxy)-benzoylamino]-octahydro-indene-2-carboxylic acid]	< 100 nM
COc1ccc(C(=O)NC2(C(=O)O)Cc3ccccc3C2)cc1OCC(F)(F)c1cccc(Cl)c1 [Example 212, 2-{3-[2-(3-Chloro-phenyl)-2,2-difluoro-ethoxy]-4-methoxy-benzoylamino}-indane-2-carboxylic acid]	< 100 nM
COc1ccc(C(=O)NC2(C(=O)O)Cc3ccccc3C2)cc1OCC(F)(F)c1ccccc1 [Example 213, 2-[3-(2,2-Difluoro-2-phenyl-ethoxy)-4-methoxy-benzoylamino]-indane-2-carboxylic acid]	< 100 nM
COc1ccc(C(=O)NC2(C(=O)O)Cc3c(F)ccc(F)c3C2)cc1OCCc1cccc(C)c1 [Example 214, 4,7-Difluoro-2-[4-methoxy-3-(2-m-tolyl-ethoxy)-benzoylamino]-indane-2-carboxylic acid]	< 100 nM
COc1ccc(C(=O)NC2(C(=O)O)Cc3cccc(F)c3C2)cc1OCCc1cccc(C)c1 (stereo not shown) [Example 215, 4-Fluoro-2-[4-methoxy-3-(2-m-tolyl-ethoxy)-benzoylamino]-indane-2-carboxylic acid]	< 100 nM
COc1ccc(C(=O)NC2(C(=O)O)Cc3cccc(C)c3C2)cc1OCCc1cccc(C)c1 (stereo not shown) [Example 216, 2-[4-Methoxy-3-(2-m-tolyl-ethoxy)-benzoylamino]-4-methyl-indane-2-carboxylic acid]	< 100 nM
COc1ccc(C(=O)NC2(C(=O)O)Cc3cccc(Cl)c3C2)cc1OCCc1cccc(C)c1 (stereo not shown) [Example 217, 4-Chloro-2-[4-methoxy-3-(2-m-tolyl-ethoxy)-benzoylamino]-indane-2-carboxylic acid]	< 100 nM
COc1ccc(C(=O)NC2(C(=O)O)Cc3ccc(C#N)cc3C2)cc1OCCc1cccc(C)c1 (stereo not shown) [Example 218, 5-Cyano-2-[4-methoxy-3-(2-m-tolyl-ethoxy)-benzoylamino]-indane-2-carboxylic acid]	< 100 nM
COc1ccc(C(=O)NC2(C(=O)O)Cc3ccc(C(N)=O)cc3C2)cc1OCCc1cccc(C)c1 (stereo not shown) [Example 219, 5-Carbamoyl-2-[4-methoxy-3-(2-m-tolyl-ethoxy)-benzoylamino]-indane-2-carboxylic acid]	1000 to 30000 nM
